In US6914045B2, “Glycopeptide antibiotics” (Wyeth Holdings Corporation, priority 2001, dated 2005):
≈ marks a conversion by molar mass, not a printed value.

Columns and labels:
Experiment in all cases: in vitro antibacterial evaluation, MIC by broth dilution
Type in all cases: cell-based
Escherichia coli = test system: Escherichia coli
In short: (§1)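 Broth dilution per NCCLS standard M7-A2 in Muller-Hinton II […], with an inoculum of 5×10^5 CFU/mL and antibiotic spanning 64-0.06 μg/mL. The MIC is the lowest concentration that inhibits growth of the organism.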

Staphylococcus sp. = details: broth dilution, 18 hours at 35° C.; for MIC Staphylococcus aureus (GC 1131): strain GC 1131
In short: as §1

Streptococcus sp. = details: broth dilution, 18 hours at 35° C.
In short: as §1

Enterococcus sp. = details: broth dilution, 18 hours at 35° C.
In short: as §1

COc1cccc(C2OC3C(OC4C(CO)OC(Oc5ccc(CC6NC(=O)C(C(C)c7ccccc7)NC(=O)CNC(=O)C(CO)NC(=O)C(C(O)C7CNC(=N)N7C7OC(CO)C(O)C(O)C7O)NC(=O)C(C(O)C7CNC(=N)N7)NC6=O)cc5)C(O)C4O)OC(CO)C(O)C3O2)c1 (single isomer, unassigned) [Example 137a, Cyclo[glycyl-β-methylphenylalanyl-O-[4-O-[2,3-O-(3-methoxybenzylidene)hexopyranosyl]-hexopyranosyl]tyrosyl-3-(2-iminoimidazolidin-4-yl)seryl-3-(3-hexopyranosyl-2-iminoimidazolidin-4-yl)serylseryl]]
MIC Escherichia coli (ATCC 25922) (Escherichia coli; strain ATCC 25922, 18 hours at 35° C.): >64 µg/mL | MIC Escherichia coli (GC 4559) (Escherichia coli; strain GC 4559, 18 hours at 35° C.): >64 µg/mL | MIC Escherichia coli (GC 4560) (Escherichia coli; strain GC 4560, 18 hours at 35° C.): 8 µg/mL (≈ 5.66 µM) | MIC Staphylococcus aureus (GC 1131) (Staphylococcus sp.; inoculum 5×10^5 CFU/mL): 32 µg/mL (≈ 22.6 µM) | MIC Staphylococcus aureus (ATCC 29213) (Staphylococcus sp.; strain ATCC 29213): 32 µg/mL (≈ 22.6 µM) | MIC Staphylococcus aureus (GC 1131) (Staphylococcus sp.): 32 µg/mL (≈ 22.6 µM) | MIC Staphylococcus aureus (GC 3051) (Staphylococcus sp.; strain GC 3051): 32 µg/mL (≈ 22.6 µM) | MIC Staphylococcus aureus (GC 3053) (Staphylococcus sp.; strain GC 3053): 32 µg/mL (≈ 22.6 µM) | MIC Staphylococcus aureus (GC 4541) (Staphylococcus sp.; strain GC 4541): 16 µg/mL (≈ 11.3 µM) | MIC Staphylococcus aureus (GC 4542) (Staphylococcus sp.; strain GC 4542): 32 µg/mL (≈ 22.6 µM) | MIC Staphylococcus aureus-SMITH (GC 4543) (Staphylococcus sp.; strain GC 4543): 16 µg/mL (≈ 11.3 µM) | MIC Staphylococcus aureus (GC 4544) (Staphylococcus sp.; strain GC 4544): 32 µg/mL (≈ 22.6 µM) | MIC Staphylococcus aureus (GC 4545) (Staphylococcus sp.; strain GC 4545): 32 µg/mL (≈ 22.6 µM) | MIC Staphylococcus haemolyticus (GC 4546) (Staphylococcus sp.; strain GC 4546): 16 µg/mL (≈ 11.3 µM) | MIC Coagulase Negative Staphylococcus (GC 4547) (Staphylococcus sp.; strain GC 4547): 16 µg/mL (≈ 11.3 µM) | MIC Coagulase Negative Staphylococcus (GC 4548) (Staphylococcus sp.; strain GC 4548): 8 µg/mL (≈ 5.66 µM) | MIC Coagulase Negative Staphylococcus (GC 4549) (Staphylococcus sp.; strain GC 4549): 8 µg/mL (≈ 5.66 µM) | MIC Coagulase Negative Staphylococcus (GC 4551) (Staphylococcus sp.; strain GC 4551): 16 µg/mL (≈ 11.3 µM) | MIC Coagulase Negative Staphylococcus (GC 6257) (Staphylococcus sp.; strain GC 6257): 8 µg/mL (≈ 5.66 µM) | MIC Staphylococcus aureus-SMITH (GC 4543) (Staphylococcus sp.; strain SMITH GC 4543): 16 µg/mL (≈ 11.3 µM) | MIC Streptococcus agalactiae (GC 4564) (Streptococcus sp.; Streptococcus agalactiae (GC 4564)): 16 µg/mL (≈ 11.3 µM) | MIC Streptococcus pneumoniae (ATCC 6301) (Streptococcus sp.; Streptococcus pneumoniae (ATCC 6301)): 8 µg/mL (≈ 5.66 µM) | MIC Streptococcus pneumoniae (GC 1894) (Streptococcus sp.; Streptococcus pneumoniae (GC 1894)): 4 µg/mL (≈ 2.83 µM) | MIC Streptococcus pneumoniae (GC 4565) (Streptococcus sp.; Streptococcus pneumoniae (GC 4565)): 16 µg/mL (≈ 11.3 µM) | MIC Streptococcus pyogenes (GC 4563) (Streptococcus sp.; Streptococcus pyogenes (GC 4563)): 16 µg/mL (≈ 11.3 µM) | MIC Streptococcus pneumoniae (ATCC 6301) (Streptococcus sp.; strain ATCC 6301): 8 µg/mL (≈ 5.66 µM) | MIC Streptococcus pneumoniae (GC 1894) (Streptococcus sp.; strain GC 1894): 4 µg/mL (≈ 2.83 µM) | MIC Streptococcus pyogenes (GC 4563) (Streptococcus sp.; strain GC 4563): 16 µg/mL (≈ 11.3 µM) | MIC Streptococcus agalactiae (GC 4564) (Streptococcus sp.; strain GC 4564): 16 µg/mL (≈ 11.3 µM) | MIC Streptococcus pneumoniae (GC 4565) (Streptococcus sp.; strain GC 4565): 16 µg/mL (≈ 11.3 µM) | MIC Enterococcus avium (GC 4558) (Enterococcus sp.; Enterococcus avium (GC 4558)): 64 µg/mL (≈ 45.3 µM) | MIC Enterococcus faecalis (ATCC 29212) (Enterococcus sp.; Enterococcus faecalis (ATCC 29212)): >64 µg/mL | MIC Enterococcus faecalis (GC 2242) (Enterococcus sp.; Enterococcus faecalis (GC 2242)): >64 µg/mL | MIC Enterococcus faecalis (GC 2691) (Enterococcus sp.; Enterococcus faecalis (GC 2691)): >64 µg/mL | MIC Enterococcus faecalis (GC 3059) (Enterococcus sp.; Enterococcus faecalis (GC 3059)): >64 µg/mL | MIC Enterococcus faecalis (GC 4552) (Enterococcus sp.; Enterococcus faecalis (GC 4552)): >64 µg/mL | MIC Enterococcus faecalis (GC 4553) (Enterococcus sp.; Enterococcus faecalis (GC 4553)): >64 µg/mL | MIC Enterococcus faecalis (GC 4554) (Enterococcus sp.; Enterococcus faecalis (GC 4554)): >64 µg/mL | MIC Enterococcus faecalis (GC 6189) (Enterococcus sp.; Enterococcus faecalis (GC 6189)): >64 µg/mL | MIC Enterococcus faecium (GC 2243) (Enterococcus sp.; Enterococcus faecium (GC 2243)): >64 µg/mL | MIC Enterococcus faecium (GC 4556) (Enterococcus sp.; Enterococcus faecium (GC 4556)): >64 µg/mL | MIC Enterococcus faecium (GC 4557) (Enterococcus sp.; Enterococcus faecium (GC 4557)): 16 µg/mL (≈ 11.3 µM) | MIC Enterococcus faecalis (ATCC 29212) (Enterococcus sp.; strain ATCC 29212): >64 µg/mL | MIC Enterococcus faecalis (GC 2242) (Enterococcus sp.; strain GC 2242): >64 µg/mL | MIC Enterococcus faecium (GC 2243) (Enterococcus sp.; strain GC 2243): >64 µg/mL | MIC Enterococcus faecalis (GC 2691) (Enterococcus sp.; strain GC 2691): >64 µg/mL | MIC Enterococcus faecalis (GC 3059) (Enterococcus sp.; strain GC 3059): >64 µg/mL | MIC Enterococcus faecalis (GC 4552) (Enterococcus sp.; strain GC 4552): >64 µg/mL | MIC Enterococcus faecalis (GC 4553) (Enterococcus sp.; strain GC 4553): >64 µg/mL | MIC Enterococcus faecalis (GC 4554) (Enterococcus sp.; strain GC 4554): >64 µg/mL | MIC Enterococcus faecium (GC 4556) (Enterococcus sp.; strain GC 4556): >64 µg/mL | MIC Enterococcus faecium (GC 4557) (Enterococcus sp.; strain GC 4557): 16 µg/mL (≈ 11.3 µM) | MIC Enterococcus avium (GC 4558) (Enterococcus sp.; strain GC 4558): 64 µg/mL (≈ 45.3 µM) | MIC Enterococcus faecalis (GC 6189) (Enterococcus sp.; strain GC 6189): >64 µg/mL
